Measured values as given in patent US20240000871A1, “Lactobacillus gasseri capable of alleviating and treating hyperuricemia” (Jiangnan University, priority 2020, published 2024).

Tested on: fecal short-chain fatty acids
Assay: Fecal short-chain fatty acids of mice with hyperuricemia
Assay type: in vivo
Settings: feces at the end of the experiment
Protocol: 24 healthy male KM mice with the weight of 38 to 44 g were randomly divided into four groups after a week of acclimatization, namely a control group, a hyperuricemia model group, an L. gasseri CCFM1133 intervention group (CCFM1133) and an allopurinol intervention group (allopurinol). Except the control group, 500 mg/kg BW hypoxanthine was given to the other groups every day by intragastric administration, and 100 mg/kg BW oteracil potassium was intraperitoneally injected to the other groups every day. At 1 h before processing with hypoxanthine and oteracil potassium, 0.4 mL of 30 g/L sucrose (a control solvent) was given to the control group and the hyperuricemia model group, L. gasseri CCFM1133 bacterial suspension (30 g/L sucrose solution containing L. gasseri CCFM1133 thallus) with the concentration of 1×10^9 CFU/mouse was given to the L. gasseri CCFM1133 intervention group, and 5 mg/kg BW allopurinol was given to the allopurinol group. […]
The short-chain fatty acids were separated by using an Rtx-Wax column. The short-chain fatty acids (acetic acid, propionic acid, isobutyric acid, butyric acid, isovaleric acid and valeric acid) were detected in a full scanning mode (the mass-to-charge ratio scanning range is 33 to 110). Characteristic ions of analyte standards were selected for quantitative analysis.

SMILES: Oc1ncnc2[nH]ncc12 [allopurinol]
- Effect on fecal short-chain fatty acid levels (acetic, propionic, isobutyric, butyric, isovaleric and valeric acid): does not have much of the effect
